Values of other authors, collected in patent US11629364B2, “Methods for synthesizing anticoagulant polysaccharides” (OPTIMVIA, LLC, priority 2019, dated 2023).

Details: pH 8.0

## Nc1ncnc2c1ncn2[C@@H]1O[C@H](COP(=O)(O)OS(=O)(=O)O)[C@@H](OP(=O)(O)O)[C@H]1O [PAPS, 3′-phosphoadenosine 5′-phosphosulfate]
  half-life of PAPS: about 20 hours
